Data taken from patent US20230286958A1, “PLASMA KALLIKREIN INHIBITORS” (Merck Sharp & Dohme LLC, priority 2020, published 2023).

How the values were obtained:
[1] = biological target: Human plasma kallikrein (Homo sapiens (Human), UniProt P03952); experiment: Kallikrein Assay (fluorogenic substrate Acetyl-K-P-R-AFC); type: biochemical; settings: Plasma Kallikrein (PKal)
Protocol: (§1) The effectiveness of a compound of the present invention as an inhibitor of Kallikrein can be determined using a relevant purified serine protease, and an appropriate synthetic substrate. The rate of hydrolysis of the chromogenic or fluorogenic substrate by the relevant serine protease was measured both in the absence and presence of compounds of the present invention. Assays were conducted at room temperature or at 37° C. […] A decrease in the rate of fluorescence change in the presence of inhibitor is indicative of enzyme inhibition. Such methods are known to one skilled in the art. The results of this assay are expressed as the half-maximal inhibitory concentrations (IC50), or the inhibitory constant, Ki.
Kallikrein determinations were made in 50 mM HEPES buffer at pH 7.4 containing 150 mM NaCl, 5 mM CaC12, and 0.1% PEG 8000 (polyethylene glycol; Fisher Scientific). Determinations were made using purified Human plasma kallikrein at a final concentration of 0.5 nM (Enzyme Research Laboratories) and the synthetic substrate, Acetyl-K-P-R-AFC (Sigma # C6608) at a concentration of […].
Times required to achieve equilibration between enzyme and inhibitor were determined in control experiments. […] IC50 was determined by inflection point from a four parameter logistic curve fit. Ki was calculated using the Cheng Prusoff equation, Ki = IC50/(1+([S]/Km)).

[2] = biological target: human Factor XIa (Homo sapiens (Human), UniProt P03951); experiment: Factor XIa Assay (fluorogenic substrate GPR-AFC); type: biochemical; settings: Factor XIa (FXIa)
Protocol: as §1, with “Coagulation Factor XIa” for “Kallikrein”
Compounds were pre-incubated for 30 minutes at 25° C. with human (0.04 nM) Factor XIa in 50 mM HEPES buffer with 150 mM sodium chloride, 5 mM calcium chloride, 0.1% PEG 8000, pH 7.4. […] The % inhibition for each data point was calculated from the data and analyzed using the log (inhibitor) vs. response four parameters equation to determine the half-maximal inhibitory concentrations (IC50). The IC50 were converted to equilibrium inhibitory constants (Ki) using the Cheng-Prusoff equation.

Chain of human Factor XIa (P03951 388-625 limits assumed): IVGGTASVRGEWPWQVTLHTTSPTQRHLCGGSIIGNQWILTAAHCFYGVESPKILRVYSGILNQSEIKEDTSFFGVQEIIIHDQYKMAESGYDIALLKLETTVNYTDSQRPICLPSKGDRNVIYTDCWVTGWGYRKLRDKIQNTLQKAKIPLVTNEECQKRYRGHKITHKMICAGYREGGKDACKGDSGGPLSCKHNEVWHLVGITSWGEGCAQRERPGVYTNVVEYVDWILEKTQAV
Chain of human Factor XIa (P03951 19-387 partner limits assumed): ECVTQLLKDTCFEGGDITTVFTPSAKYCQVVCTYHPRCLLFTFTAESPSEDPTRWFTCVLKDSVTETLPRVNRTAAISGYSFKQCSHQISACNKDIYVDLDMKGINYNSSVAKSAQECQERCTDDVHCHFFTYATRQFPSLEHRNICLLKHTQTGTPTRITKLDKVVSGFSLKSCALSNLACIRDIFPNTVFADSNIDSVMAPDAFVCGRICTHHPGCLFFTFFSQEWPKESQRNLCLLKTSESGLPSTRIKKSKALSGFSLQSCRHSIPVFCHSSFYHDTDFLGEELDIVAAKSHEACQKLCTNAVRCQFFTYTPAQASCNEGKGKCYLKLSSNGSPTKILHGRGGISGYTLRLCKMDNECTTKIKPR
Chain of Human plasma kallikrein (P03952 391-638): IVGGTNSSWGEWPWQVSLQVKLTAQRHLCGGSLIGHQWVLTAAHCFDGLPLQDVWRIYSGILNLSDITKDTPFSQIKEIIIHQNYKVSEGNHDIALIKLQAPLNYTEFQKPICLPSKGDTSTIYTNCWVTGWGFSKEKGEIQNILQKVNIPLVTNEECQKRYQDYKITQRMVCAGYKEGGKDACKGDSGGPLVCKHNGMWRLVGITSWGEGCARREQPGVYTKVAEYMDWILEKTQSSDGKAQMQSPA
Chain of Human plasma kallikrein (P03952 20-390 partner): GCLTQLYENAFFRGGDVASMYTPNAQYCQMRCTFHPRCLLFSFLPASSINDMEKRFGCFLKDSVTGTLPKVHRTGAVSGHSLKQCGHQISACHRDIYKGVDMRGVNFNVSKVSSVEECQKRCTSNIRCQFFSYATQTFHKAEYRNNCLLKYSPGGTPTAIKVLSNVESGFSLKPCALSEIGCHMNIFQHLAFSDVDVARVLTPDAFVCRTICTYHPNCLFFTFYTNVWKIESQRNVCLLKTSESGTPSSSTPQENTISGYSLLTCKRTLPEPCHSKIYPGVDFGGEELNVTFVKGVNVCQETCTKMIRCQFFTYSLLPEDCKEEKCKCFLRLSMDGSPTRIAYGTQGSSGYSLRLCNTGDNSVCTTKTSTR

| Structure (SMILES) | IC50 [1] [nM] | IC50 [2] [nM] |
| --- | --- | --- |
| Cc1ncc(-c2c(C(F)F)ccc(Cl)c2F)nc1C(=O)Nc1cnn(C(C)c2cnc(N3C[C@H]4C[C@H]4C3=O)c3c2OCO3)c1 (single isomer, unassigned) [Example 252, 6-(3-Chloro-6-(difluoromethyl)-2-fluorophenyl)-3-methyl-N-(1-((R or S)-1-(4-((1R,5S)-2-oxo-3-azabicyclo[3.1.0]hexan-3-yl)-[1,3]dioxolo[4,5-c]pyridin-7-yl)ethyl)-1H-pyrazol-4-yl)pyrazine-2-carboxamide] | 0.9 | 1830 |
| Cc1ncc(-c2c(C#N)ccc(Cl)c2F)nc1C(=O)Nc1cnn(C(C)c2cnc(N3C[C@H]4C[C@H]4C3=O)c(C)n2)c1 (single isomer, unassigned) [Example 235, 6-(3-Chloro-6-cyano-2-fluorophenyl)-3-methyl-N-(1-((S or R)-1-(6-methyl-5-((1R,5S)-2-oxo-3-azabicyclo[3.1.0]hexan-3-yl)pyrazin-2-yl)ethyl)-1H-pyrazol-4-yl)pyrazine-2-carboxamide] | 0.4 | 2060 |
| COc1ncc(-c2c(OC(F)F)ccc(Cl)c2F)nc1C(=O)Nc1cnn(C(C)c2cnc(N3C[C@H]4C[C@H]4C3=O)c(C)n2)c1 (single isomer, unassigned) [Example 241, 6-(3-Chloro-6-(difluoromethoxy)-2-fluorophenyl)-3-methoxy-N-(1-((S or R)-1-(6-methyl-5-((1R,5S)-2-oxo-3-azabicyclo[3.1.0]hexan-3-yl)pyrazin-2-yl)ethyl)-1H-pyrazol-4-yl)pyrazine-2-carboxamide] | 0.7 | 377 |
| CC(c1ncc(N2C[C@H]3C[C@H]3C2=O)cn1)n1cc(NC(=O)c2cncc(-c3c(C(F)F)ccc(Cl)c3F)n2)cn1 (single isomer, unassigned) [Example 5, 6-(3-Chloro-6-(difluoromethyl)-2-fluorophenyl)-N-(1-((S or R)-1-(5-((1R,5S)-2-oxo-3-azabicyclo[3.1.0]hexan-3-yl)pyrimidin-2-yl)ethyl)-1H-pyrazol-4-yl)pyrazine-2-carboxamide] | 17.2 | > 10000 |
| Cc1ncc(-c2c(C(F)F)ccc(Cl)c2F)nc1C(=O)Nc1cnn(C(C)c2cnc(N3C[C@H]4C[C@H]4C3=O)c(OC(F)F)c2C)c1 (single isomer, unassigned) [Example 225] | 0.9 | 5740 |
| Cc1cc(C(C)n2cc(NC(=O)c3cncc(-c4c(OC(F)F)ccc(Cl)c4F)n3)cn2)nnc1N1C[C@H]2C[C@H]2C1=O (single isomer, unassigned) [Example 114, 6-(3-Chloro-6-(difluoromethoxy)-2-fluorophenyl)-N-(1-((S or R)-1-(5-methyl-6-((1R,5S)-2-oxo-3-azabicyclo[3.1.0]hexan-3-yl)pyridazin-3-yl)ethyl)-1H-pyrazol-4-yl)pyrazine-2-carboxamide] | 0.7 | 558 |
| Cc1c(N2C[C@H]3C[C@H]3C2=O)cnc(C(C)n2cc(NC(=O)c3cncc(-c4c(C(F)F)ccc(Cl)c4F)n3)cn2)c1N (single isomer, unassigned) [Example 117, N-(1-((S or R)-1-(3-Amino-4-methyl-5-((1R,SS)-2-oxo-3-azabicyclo[3.1.0]hexan-3-yl)pyridin-2-yl)ethyl)-1H-pyrazol-4-yl)-6-(3-chloro-6-(difluoromethyl)-2-fluorophenyl)pyrazine-2-carboxamide] | 1.9 | > 10000 |
| Cc1nc([C@@H](C)n2cc(NC(=O)c3nc(-c4c(C(F)F)ccc(Cl)c4F)cnc3C)cn2)ncc1N1C[C@H]2C[C@H]2C1=O [Example 2, 6-(3-Chloro-6-(difluoromethyl)-2-fluorophenyl)-3-methyl-N-(1-((R)-1-(4-methyl-5-((1R,5S)-2-oxo-3-azabicyclo[3.1.0]hexan-3-yl)pyrimidin-2-yl)ethyl)-1H-pyrazol-4-yl)pyrazine-2-carboxamide] | 11.9 | > 10000 |
| C[C@@H](c1cnc(N2C[C@H]3C[C@H]3C2=O)nc1)n1cc(NC(=O)c2nc(-c3c(C(F)F)ccc(Cl)c3F)cnc2C(O)C(F)(F)F)cn1 (single isomer, unassigned) [Example 176, 6-(3-Chloro-6-(difluoromethyl)-2-fluorophenyl)-N-(1-((S)-1-(2-((1R,5S)-2-oxo-3-azabicyclo[3.1.0]hexan-3-yl)pyrimidin-5-yl)ethyl)-1H-pyrazol-4-yl)-3-((S or R)-2,2,2-trifluoro-1-hydroxyethyl)pyrazine-2-carboxamide] | 5.3 | 4550 |
| Cc1c(C(C)n2cc(NC(=O)c3cncc(-c4c(OC(F)F)ccc(Cl)c4F)n3)cn2)cnc(N2C[C@H]3C[C@H]3C2=O)c1C (single isomer, unassigned) [Example 104, 6-(3-Chloro-6-(difluoromethoxy)-2-fluorophenyl)-N-(1-((S or R)-1-(4,5-dimethyl-6-((1R,5S)-2-oxo-3-azabicyclo[3.1.0]hexan-3-yl)pyridin-3-yl)ethyl)-1H-pyrazol-4-yl)pyrazine-2-carboxamide] | 1.2 | 420 |
| Cc1cc(C(C)n2cc(NC(=O)c3cncc(-c4c(OC(F)F)ccc(Cl)c4F)n3)cn2)nnc1N1C[C@H]2C[C@H]2C1=O (single isomer, unassigned) [Example 115, 6-(3-Chloro-6-(difluoromethoxy)-2-fluorophenyl)-N-(1-((R or S)-1-(5-methyl-6-((1R,5S)-2-oxo-3-azabicyclo[3.1.0]hexan-3-yl)pyridazin-3-yl)ethyl)-1H-pyrazol-4-yl)pyrazine-2-carboxamide] | 2.5 | 468 |
| Cc1ncc(-c2c(C#N)ccc(Cl)c2F)nc1C(=O)Nc1cnn(C(C)c2cnc(N3C[C@H]4C[C@H]4C3=O)c(F)c2C)c1 (single isomer, unassigned) [Example 135, 6-(3-Chloro-6-cyano-2-fluorophenyl)-N-(1-((S or R)-1-(5-fluoro-4-methyl-6-((1R,5S)-2-oxo-3-azabicyclo[3.1.0]hexan-3-yl)pyridin-3-yl)ethyl)-1H-pyrazol-4-yl)-3-methylpyrazine-2-carboxamide] | 5.4 | 4880 |
| Cc1ncc(-c2c(C(F)F)ccc(Cl)c2F)nc1C(=O)Nc1cnn([C@@H](C)c2cnc(N3C[C@H]4C[C@H]4C3=O)c(N)c2)c1 [Example 189] | 1.3 | 667 |
| Cc1nc(Cn2cc(NC(=O)c3nc(-c4c(C(F)F)ccc(Cl)c4F)cnc3C(F)F)cn2)cnc1N1C[C@H]2C[C@H]2C1=O [Example 94, 6-(3-Chloro-6-(difluoromethyl)-2-fluorophenyl)-3-(difluoromethyl)-N-(1-((6-methyl-5-((1R, 5S)-2-oxo-3-azabicyclo[3.1.0]hexan-3-yl)pyrazin-2-yl)methyl)-1H-pyrazol-4-yl)pyrazine-2-carboxamide] | 1.6 | 1010 |
| Cc1cc(N2C[C@H]3C[C@H]3C2=O)ccc1C(C)n1cc(NC(=O)c2nc(-c3c(C(F)F)ccc(Cl)c3F)cnc2C)cn1 (single isomer, unassigned) [Example 97, 6-(3-Chloro-6-(difluoromethyl)-2-fluorophenyl)-3-methyl-N-(1-((S or R)-1-(2-methyl-4-((1R,5S)-2-oxo-3-azabicyclo[3.1.0]hexan-3-yl)phenyl)ethyl)-1H-pyrazol-4-yl)pyrazine-2-carboxamide] | 1.3 | > 10000 |
| Cc1cc([C@H](C)n2cc(NC(=O)c3nc(-c4c(OC(F)F)ccc(Cl)c4F)cnc3CO)cn2)cnc1N1C[C@H]2C[C@H]2C1=O [Example 226] | 0.4 | 41 |
| C[C@@H](c1cnc(N2C[C@H]3C[C@H]3C2=O)nc1)n1cc(NC(=O)c2nc(-c3c(C(F)F)ccc(Cl)c3F)cnc2C(C)(C)O)cn1 [Example 181, 6-(3-Chloro-6-(difluoromethyl)-2-fluorophenyl)-3-(2-hydroxypropan-2-yl)-N-(1-((S)-1-(2-((1R,5S)-2-oxo-3-azabicyclo[3.1.0]hexan-3-yl)pyrimidin-5-yl)ethyl)-1H-pyrazol-4-yl)pyrazine-2-carboxamide] | 37.1 | > 10000 |
| O=C(Nc1cnn(Cc2cnc(N3C[C@H]4C[C@H]4C3=O)nc2)c1)c1cncc(-c2c(C(F)F)ccc(Cl)c2F)n1 [Example 25, 6-(3-Chloro-6-(difluoromethyl)-2-fluorophenyl)-N-(1-((2-((1R,5S)-2-oxo-3-azabicyclo-[3.1.0]hexan-3-yl)pyrimidin-5-yl)methyl)-1H-pyrazol-4-yl)pyrazine-2-carboxamide] | 27.7 | 4690 |
